Experimental data reported in US10448639B2, “Fungicidal pyrazoles” (FMC CORPORATION, priority 2009, dated 2019).

Legend:
Septoria tritici = experiment: Test G: wheat leaf blotch, preventive spray on wheat seedlings, visual disease rating; conditions: wheat leaf blotch; 100 = 100% disease control, 0 = no control relative to controls
[1] = system: Puccinia recondita f. sp. tritici; experiment: Test I: wheat leaf rust, preventive spray on wheat seedlings, visual disease rating; conditions: wheat leaf rust, preventive; 100 = 100% disease control, 0 = no control relative to controls
Alternaria solani = experiment: Test C: tomato early blight, preventive spray on tomato seedlings, visual disease rating; conditions: tomato early blight; 100 = 100% disease control, 0 = no control relative to controls
[2] = system: Puccinia recondita f. sp. tritici; experiment: Test H: wheat leaf rust, curative spray on inoculated wheat seedlings, visual disease rating; conditions: wheat leaf rust, curative; 100 = 100% disease control, 0 = no control relative to controls
Septoria nodorum = experiment: Test F: Septoria glume blotch, preventive spray on wheat seedlings, visual disease rating; conditions: Septoria glume blotch; 100 = 100% disease control, 0 = no control relative to controls
[3] = system: Erysiphe graminis f sp. tritici; experiment: Test J: wheat powdery mildew, preventive spray on wheat seedlings, visual disease rating; conditions: wheat powdery mildew; 100 = 100% disease control, 0 = no control relative to controls
Excerpt: General protocol for preparing test suspensions for Tests A-J: the test compounds were first dissolved in acetone in an amount equal to 3% of the final volume and then suspended at the desired concentration (in ppm) in acetone and purified water (50/50 mix by volume) containing 250 ppm of the surfactant Trem® 014 (polyhydric alcohol esters). The resulting test suspensions were then used in Tests A-J. Spraying a 200 ppm test suspension to the point of run-off on the test plants was the equivalent of a rate of 500 g/ha. Unless otherwise indicated, the rating values indicate a 200 ppm test suspension was used. (An asterisk “*” next to the rating value indicates a 40 ppm test suspension was used.)
The test suspension was sprayed to the point of run-off on wheat seedlings. The following day the seedlings were inoculated with a spore dust of Erysiphe graminis f sp. tritici, (the causal agent of wheat powdery mildew) and incubated in a growth chamber at 20° C. for 8 days, after which time visual disease ratings were made.

Botrytis cinerea = experiment: Test B: tomato Botrytis, preventive spray on tomato seedlings, visual disease rating; conditions: tomato Botrytis; 100 = 100% disease control, 0 = no control relative to controls

Structure (SMILES)	Test G rating (% disease control) (Septoria tritici)	Test I rating (% disease control) [1]	Test C rating (% disease control) (Alternaria solani)	Test H rating (% disease control) [2]	Test F rating (% disease control) (Septoria nodorum)	Test J rating (% disease control) [3]	Test B rating (% disease control) (Botrytis cinerea)
Cc1nn(C)c(Nc2ccc(F)cc2)c1-c1ccccc1C(F)(F)F [compound 237]	97%	68%	0%	0%	0%	97%	99%
Cc1nn(C)c(Nc2ccc(F)cc2F)c1-c1ccccc1C(F)(F)F [compound 238]	0%	9%	0%	53%	0%	43%	99%
Cc1nn(C)c(Nc2c(F)cc(F)cc2F)c1-c1ccccc1C(F)(F)F [compound 239]	67%	68%	95%	0%	0%	100%	99%
COc1cc(F)c(Nc2c(-c3ccccc3C(F)(F)F)c(C)nn2C)c(F)c1 [compound 240]	99%	99%	99%	0%	0%	100%	100%
Cc1nn(C)c(Nc2ncccc2Cl)c1-c1c(F)cc(F)cc1F [compound 241]	100%	100%	99%	97%	0%	100%	99%
COc1ccc(Nc2c(-c3ccc(F)cc3F)c(C)nn2C)c(Cl)c1 [compound 242]	100%	91%	37%	0%	0%	100%	99%
Cc1nn(C)c(Nc2ccc(Cl)cc2Cl)c1-c1ccc(F)cc1F [compound 243]	100%	97%	64%	0%	0%	100%	100%
COc1ccc(F)c(Nc2c(-c3ccc(F)cc3F)c(C)nn2C)c1 [compound 244]	91%	0%	0%	0%	0%	96%	82%
Cc1nn(C)c(Nc2cc(Cl)ccc2Cl)c1-c1ccc(F)cc1F [compound 245]	97%	68%	0%	0%	0%	93%	90%
Cc1nn(C)c(Nc2ccc(C#N)cc2F)c1-c1ccc(F)cc1F [compound 246]	100%	80%	51%	0%	0%	100%	99%
Cc1nn(C)c(Nc2c(F)cccc2F)c1-c1c(F)cccc1F [compound 247]	100%	99%	99%	0%	60%	100%	100%
Cc1nn(C)c(Nc2c(F)cc(F)cc2F)c1-c1ccccc1Br [compound 248]	100%	99%	26%	0%	73%	100%	99%
COc1cc(F)c(-c2c(C)nn(C)c2Oc2ccc(C)c(OC)c2)c(F)c1 [compound 249]	99%	96%	0%	0%	0%	100%	40%
Cc1ccc(Oc2c(-c3c(F)cc(F)cc3F)c(C)nn2C)cc1C#N [compound 250]	77%	86%	0%	0%	0%	100%	98%
Cc1nn(C)c(Nc2ncc(Cl)cc2Cl)c1-c1ccccc1C(F)(F)F [compound 251]	98%	86%	0%	0%	0%	100%	99%
Cc1nn(C)c(Nc2ncc(Cl)cc2Cl)c1-c1c(F)cccc1Cl [compound 252]	100%	100%	97%	0%	0%	100%	100%
Cc1nn(C)c(Nc2ccc(F)cc2Cl)c1-c1c(F)cccc1C(F)(F)F [compound 253]	0%	0%	0%	0%	0%	76%	99%
Cc1nn(C)c(Nc2ccc(F)cc2)c1-c1c(F)cccc1C(F)(F)F [compound 254]	84%	0%	0%	0%	0%	64%	100%
Cc1nn(C)c(Nc2ccc(F)cc2F)c1-c1c(F)cccc1C(F)(F)F [compound 255]	0%	0%	0%	0%	0%	39%	100%
Cc1nn(C)c(Nc2c(F)cccc2F)c1-c1ccc(F)cc1F [compound 256]	100%	99%	99%	0%	96%	100%	99%
